According to patent US4684622A, “Compositions and methods for producing vasodilation and antioxytocic activity” (SmithKline Beckman Corporation, priority 1986, dated 1987):
Numbered stars: 1 amine (or outer) side, 2 acyl side, 3 side chain; on linkers, the order of the positions; unused ones are H or OH. Bridge positions count the residues as written; N and C are the ends. Square brackets hold non-standard residues; d marks the D form. Peptide text beside a SMILES is read from it. X2 = O=C(CC1(S[*:2])CCCCC1)[*:1]; X1 = CC(C)(CC(=O)[*:1])S[*:2]; Mpa = O=C(O)CCS

How the values were obtained:
V2-vasopressin receptors [1] = target: T1, V2-vasopressin receptors (Sus scrofa, UniProt P32307); assay: inhibition of 3H-LVP binding, medullary pig kidney tissue
T1 construct: Medullary pig kidney tissue; from tissue; host or cells: pig (hog) kidney medulla
Protocol: (§1) Antagonistic activity of the V1 -vasopressin receptors is determined in a protocol which measures the reversal of the vasopressin-induced contraction of rat thoracic aorta tissue. This is expressed as KB (nM) in the table below. Such anti-pressor activity is confirmed in a similar in vitro protocol using the plasma membranes of rat liver. V2 -vasopressin antagonism is determined as receptor binding ability measured by inhibition of 3H-LVP binding (KB as nM), by inhibition of adenylate cyclase activation by vasopressin in the medullary tissue of hog kidneys (Ki as nM) or in vivo in the hydropenic rat protocol (ED300 μg/kg). These procedures are described in the literature: F. Stassen et al., J. Pharmacology and Experimental Therapeutics, 223 50 (1982); F. Stassen et al., 1st International Conference on Diuretics, Miami, Fla., March (1984). Antagonistic activity at oxytocin receptors is determined in the isolated rat uterus protocol: W. Sawyer, et al., Endocrinology 106 81 (1979); P. Melin, et al., J. of Endocrinology 88 173 (1981).
(§2) ^a Medullary pig kidney tissue, […]

oxytocin receptors = target: T2, oxytocin receptors (Rattus norvegicus, UniProt P70536); assay: isolated rat uterus protocol; type: cell-based; conditions: read-out: Rat OXT KB
T2 construct: Rat uterus; from tissue; host or cells: isolated rat uterus
T2 sequence (P70536 1-388): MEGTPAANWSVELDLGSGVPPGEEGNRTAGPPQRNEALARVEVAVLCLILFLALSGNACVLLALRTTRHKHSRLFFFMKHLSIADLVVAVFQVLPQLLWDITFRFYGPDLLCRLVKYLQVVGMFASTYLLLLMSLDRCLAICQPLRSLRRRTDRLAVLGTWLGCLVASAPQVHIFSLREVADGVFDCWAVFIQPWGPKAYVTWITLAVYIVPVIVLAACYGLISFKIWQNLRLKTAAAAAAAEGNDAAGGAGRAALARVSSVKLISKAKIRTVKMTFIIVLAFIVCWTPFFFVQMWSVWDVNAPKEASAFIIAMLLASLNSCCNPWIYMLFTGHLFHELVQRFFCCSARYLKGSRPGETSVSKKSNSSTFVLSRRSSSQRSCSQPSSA
Protocol: as §1

V1-vasopressin receptors [2] = target: T3, V1-vasopressin receptors (Rattus norvegicus, UniProt P30560); assay: reversal of vasopressin-induced contraction of rat thoracic aorta tissue; type: cell-based; conditions: rat aortic ring tissue
T3 construct: Rat aortic ring tissue; from tissue; host or cells: rat thoracic aorta rings
Protocol: as §1
^c Rat aortic ring tissue, […]

V2-vasopressin receptors [3] = target: T4, V2-vasopressin receptors (Rattus norvegicus, UniProt Q00788); assay: hydropenic rat protocol in vivo
T4 construct: Hydropenic rat; from tissue; host or cells: whole animal (hydropenic rat)
Protocol: as §1

V1-vasopressin receptors [4] = target: T3, V1-vasopressin receptors; assay: in vitro protocol using plasma membranes of rat liver; type: binding; conditions: rat liver membrane
Protocol: as §1

V2-vasopressin receptors [5] = target: T1, V2-vasopressin receptors; assay: inhibition of adenylate cyclase activation by vasopressin, medullary pig kidney tissue; type: biochemical
Protocol: as §1, §2

T1 sequence (P32307 whole entry): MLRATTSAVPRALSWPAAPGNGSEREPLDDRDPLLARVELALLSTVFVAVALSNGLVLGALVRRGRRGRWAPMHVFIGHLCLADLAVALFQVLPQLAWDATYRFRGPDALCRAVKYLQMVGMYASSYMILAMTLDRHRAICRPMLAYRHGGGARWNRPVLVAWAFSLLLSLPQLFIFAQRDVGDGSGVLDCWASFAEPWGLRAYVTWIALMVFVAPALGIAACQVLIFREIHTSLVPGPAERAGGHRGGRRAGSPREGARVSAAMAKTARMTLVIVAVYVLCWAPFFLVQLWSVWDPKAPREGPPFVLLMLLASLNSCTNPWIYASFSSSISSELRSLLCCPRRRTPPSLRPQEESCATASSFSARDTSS
T3 sequence (P30560 whole entry): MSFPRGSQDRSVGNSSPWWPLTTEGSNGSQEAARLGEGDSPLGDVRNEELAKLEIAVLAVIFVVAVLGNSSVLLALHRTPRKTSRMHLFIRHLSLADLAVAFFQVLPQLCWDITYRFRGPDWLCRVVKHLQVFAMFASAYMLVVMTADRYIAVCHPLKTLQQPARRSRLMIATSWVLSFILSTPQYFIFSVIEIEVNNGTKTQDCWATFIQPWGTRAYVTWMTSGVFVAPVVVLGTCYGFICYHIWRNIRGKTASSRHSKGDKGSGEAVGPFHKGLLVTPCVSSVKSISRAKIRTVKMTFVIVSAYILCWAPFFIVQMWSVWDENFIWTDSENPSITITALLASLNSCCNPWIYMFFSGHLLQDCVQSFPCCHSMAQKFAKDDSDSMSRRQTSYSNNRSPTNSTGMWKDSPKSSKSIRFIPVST
T4 sequence (Q00788 whole entry): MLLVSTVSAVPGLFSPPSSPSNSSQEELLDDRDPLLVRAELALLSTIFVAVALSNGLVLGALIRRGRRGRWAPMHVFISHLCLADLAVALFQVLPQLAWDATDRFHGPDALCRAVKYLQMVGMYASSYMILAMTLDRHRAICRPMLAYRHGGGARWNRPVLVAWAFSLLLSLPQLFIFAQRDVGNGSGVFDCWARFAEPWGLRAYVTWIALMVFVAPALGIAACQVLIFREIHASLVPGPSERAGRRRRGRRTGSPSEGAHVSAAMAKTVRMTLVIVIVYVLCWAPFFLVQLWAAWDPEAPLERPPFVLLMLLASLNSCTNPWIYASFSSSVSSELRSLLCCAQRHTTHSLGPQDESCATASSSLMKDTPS

Compound `COc1ccc(C[C@@H]2NC(=O)CC(C)(C)SSC[C@@H](C(=O)N[C@@H](CCCNC(=N)N)C(N)=O)NC(=O)[C@H](CC(N)=O)NC(=O)[C@H](CCC(N)=O)NC(=O)[C@H](Cc3ccccc3)NC2=O)cc1` [A] (Y(Me)FQNCR-NH2; linker N-5 via X1) has a Kb (V2-vasopressin receptors [1]) of 3000 nM, a Kb (oxytocin receptors) of 32.6 nM and a Kb (V1-vasopressin receptors [2]) of 5.69 nM. For the same compound, the “Rat V2 ED300” value (V2-vasopressin receptors [3]) was > 5.959 mg/kg and the Kb (V1-vasopressin receptors [4]) was 38 nM.

`COc1ccc(C[C@@H]2NC(=O)CC(C)(C)SSC[C@@H](C(=O)N[C@@H](CCCNC(=N)N)C(=O)NCC(N)=O)NC(=O)[C@H](CC(N)=O)NC(=O)[C@H](CCC(N)=O)NC(=O)[C@H](Cc3ccccc3)NC2=O)cc1` [B] (Y(Me)FQNCRG-NH2; linker N-5 via X1) gave a Kb (V2-vasopressin receptors [1]) of 3300 nM, a Kb (oxytocin receptors) of 18.9 nM and a Kb (V1-vasopressin receptors [2]) of 1.48 nM. The “Rat V2 ED300” value (V2-vasopressin receptors [3]) was > 5.977 mg/kg and the Kb (V1-vasopressin receptors [4]) was 37 nM.

For `CCOc1ccc(C[C@H]2NC(=O)CC(C)(C)SSC[C@@H](C(=O)N[C@@H](CCCNC(=N)N)C(N)=O)NC(=O)[C@H](CC(N)=O)NC(=O)[C@H](CCC(N)=O)NC(=O)[C@H](Cc3ccccc3)NC2=O)cc1` [C] ([dY](Et)FQNCR-NH2; linker N-5 via X1), the Kb (V2-vasopressin receptors [1]) was 350 nM, the Kb (oxytocin receptors) was 1.88 nM and the Kb (V1-vasopressin receptors [2]; estimated, compound noncompetitive) was 0.0072 nM.

`CCOc1ccc(C[C@H]2NC(=O)CCSSC[C@@H](C(=O)N[C@@H](CCCNC(=N)N)C(N)=O)NC(=O)[C@H](CC(N)=O)NC(=O)[C@H]([C@@H](C)O)NC(=O)[C@H]([C@@H](C)CC)NC2=O)cc1` [D] ([Mpa][dY](Et)ITNCR-NH2; disulfide 1-6) was tested, and the Kb (V2-vasopressin receptors [1]) was 1600 nM and the Kb (oxytocin receptors) was 11.4 nM.

Work on `CCOc1ccc(C[C@H]2NC(=O)CCSSC[C@@H](C(=O)N[C@@H](CCCNC(=N)N)C(=O)NCC(N)=O)NC(=O)[C@H](CC(N)=O)NC(=O)[C@H]([C@@H](C)O)NC(=O)[C@H]([C@@H](C)CC)NC2=O)cc1` [E] ([Mpa][dY](Et)ITNCRG-NH2; disulfide 1-6) yielded a Kb (V2-vasopressin receptors [1]) of 4100 nM and a Kb (oxytocin receptors) of 17.7 nM.

In the case of `COc1ccc(C[C@@H]2NC(=O)CC(C)(C)SSC[C@@H](C(=O)N3CCC[C@H]3C(=O)N[C@@H](CCCNC(=N)N)C(=O)NCC(N)=O)NC(=O)[C@H](CC(N)=O)NC(=O)[C@H](CCC(N)=O)NC(=O)[C@H](Cc3ccccc3)NC2=O)cc1` [F] (Y(Me)FQNCPRG-NH2; linker N-5 via X1), the Kb (V2-vasopressin receptors [1]) is reported as 70 nM, the Kb (V1-vasopressin receptors [4]) is reported as 2.9 nM and the “Pig V2 Ki” value (V2-vasopressin receptors [5]) is reported as “agonist”.

Work on `COc1ccc(C[C@@H]2NC(=O)CC3(CCCCC3)SSC[C@@H](C(=O)N3CCC[C@H]3C(=O)N[C@@H](CCCN=C(N)N)C(=O)NCC(N)=O)NC(=O)[C@H](CC(N)=O)NC(=O)[C@H](CCC(N)=O)NC(=O)[C@H](Cc3ccccc3)NC2=O)cc1` [G] (Y(Me)FQNCPRG-NH2; linker N-5 via X2) yielded a Kb (V2-vasopressin receptors [1]) of 369 nM, a Kb (V1-vasopressin receptors [2]) of 0.026 nM and a Kb (V1-vasopressin receptors [4]) of 0.48 nM. It also gave a Ki (V2-vasopressin receptors [5]) of 210 nM.
